According to PMC5615938 (Toxicology Reports, 2016):
Like-named read-outs stand apart in the source and are kept apart here. Blank lines part the entries; values can stand above or below the compound they belong to.

Legend:
[1] = target: Silver catfish (Synodontis eupterus) major hepatic glutathione transferase (seGST); test: Product and dead-end inhibition studies of seGST; type: biochemical
[2] = target: Silver catfish (Synodontis eupterus) major hepatic glutathione transferase (seGST); type: biochemical; details: pH 6.5, 1 mM CDNB and 1 mM GSH
[3] = test system: Silver catfish (Synodontis eupterus) major hepatic glutathione transferase (seGST); test: seGST steady state kinetics, GSH-CDNB conjugation; type: biochemical; details: for Km: 0.1-1.2 mM GSH and CDNB, one substrate varied, the other kept constant
GST = details: cited from earlier work
[4] = test system: Silver catfish (Synodontis eupterus) major hepatic glutathione transferase (seGST); test: Viscosity dependence of seGST kcat/KM; type: biochemical; details: viscosogen added, 25 °C

Ki ([1]; read-out: Kis (CDNB varied), CDNB varied): 0.16 µM | Ki ([1]; read-out: Kis (GSH varied), CDNB fixed at 1.0 mM, GSH 0.1-1.0 mM): 0.09 µM | IC50 [2]: 16.6 ± 1.58 µM
Compound: 1-methyl glutathione [1−methylglutathione]

Compound: O=C1OC(c2ccc(O)c(S(=O)(=O)O)c2)(c2ccc(O)c(S(=O)(=O)O)c2)c2c(Br)c(Br)c(Br)c(Br)c21 [Bromosulphosptlein, bromosulfophthalein]
IC50 [2]: 47.4 ± 5.67 µM

Compound: O=[N+]([O-])c1ccc(Cl)c([N+](=O)[O-])c1 [CDNB, 1-chloro 2,4-dintrobenzene]
Km ([3]; 25 °C): 690 ± 170 µM | KIB (E.CDNB + GSH ⇌ E.CDNB.GSH) ([3]; from secondary plots, GSH-CDNB): 0.48 ± 0.02

IC50 [2]: 0.01 ± 0.001 µM
Compound: Nc1c(S(=O)(=O)O)cc(Nc2ccc(Nc3nc(Cl)nc(Nc4ccccc4S(=O)(=O)O)n3)c(S(=O)(=O)O)c2)c2c1C(=O)c1ccccc1C2=O [Cibracron Blue]

IC50 [2]: 21.3 ± 3.22 µM
Compound: C=C(CC)C(=O)c1ccc(OCC(=O)O)c(Cl)c1Cl [Ethacrynic acid]

Km ([3]; 25 °C): 530 ± 50 µM | kcat[GSH] ([3]; 25 °C, GSH-CDNB conjugation): 44.62 ± 1.124 s⁻¹ | KA (E.GSH + CDNB ⇌ E.GSH.CDNB) ([3]; from secondary plots, GSH-CDNB): 0.64 ± 0.04 | KIA (E.GSH) ([3]; from secondary plots, GSH-CDNB): 0.14 ± 0.01
Compound: N[C@@H](CCC(=O)N[C@@H](CS)C(=O)NCC(=O)O)C(=O)O [GSH, Reduced glutathione]
pKa of GSH (GST; before lowering by GST): 9.0 | pKa of the bound GSH (GST; bound to GST): about 6.5

IC50 [2]: 5 ± 0.1 µM
Compound: C=CC1=C(C)c2cc3[n-]c(cc4[n-]c(cc5nc(cc1n2)C(C)=C5C=C)c(C)c4CCC(=O)O)c(CCC(=O)O)c3C.[Fe+2] [Hematin]

Compound: [Cl-].[K+] [KCl]
inhibition pattern in double reciprocal plots ([1]; with respect to GSH and with respect to CDNB): non-competitive inhibition

Compound: [Cl][Sn]([c]1ccccc1)([c]1ccccc1)[c]1ccccc1 [Triphenytin chloride, triphenyltin chloride]
IC50 [2]: 0.05 ± 0.005 µM

catalytic efficiency indicated by the exponential value [4]: 23% | exponential value of (kcat/KM)^0/(kcat/KM) versus relative viscosity ([4]; 0.1 M potassium phosphate buffer pH 6.5): 0.227
Compound: OCC(O)CO [glycerol, Glycerol]

IC50 [2]: 17.6 ± 1.3 µM
Compound: CCCCCCSC[C@H](NC(=O)CC[C@H](N)C(=O)O)C(=O)NCC(=O)O [s-hexylglutathione]
